According to paper PMC10952433, “A Chemoenzymatic Approach To Produce a Cyclic Analogue of the Analgesic Drug MVIIA (Ziconotide)” (Angewandte Chemie (International Ed. in English), 2023):

Assays:
CaV2.2 [1] = target: T1, CaV2.2 (Homo sapiens, UniProt Q00975); assay: cell-based
CaV2.2 [2] = target: T1, CaV2.2

T1 sequence (Q00975 whole entry, looked up): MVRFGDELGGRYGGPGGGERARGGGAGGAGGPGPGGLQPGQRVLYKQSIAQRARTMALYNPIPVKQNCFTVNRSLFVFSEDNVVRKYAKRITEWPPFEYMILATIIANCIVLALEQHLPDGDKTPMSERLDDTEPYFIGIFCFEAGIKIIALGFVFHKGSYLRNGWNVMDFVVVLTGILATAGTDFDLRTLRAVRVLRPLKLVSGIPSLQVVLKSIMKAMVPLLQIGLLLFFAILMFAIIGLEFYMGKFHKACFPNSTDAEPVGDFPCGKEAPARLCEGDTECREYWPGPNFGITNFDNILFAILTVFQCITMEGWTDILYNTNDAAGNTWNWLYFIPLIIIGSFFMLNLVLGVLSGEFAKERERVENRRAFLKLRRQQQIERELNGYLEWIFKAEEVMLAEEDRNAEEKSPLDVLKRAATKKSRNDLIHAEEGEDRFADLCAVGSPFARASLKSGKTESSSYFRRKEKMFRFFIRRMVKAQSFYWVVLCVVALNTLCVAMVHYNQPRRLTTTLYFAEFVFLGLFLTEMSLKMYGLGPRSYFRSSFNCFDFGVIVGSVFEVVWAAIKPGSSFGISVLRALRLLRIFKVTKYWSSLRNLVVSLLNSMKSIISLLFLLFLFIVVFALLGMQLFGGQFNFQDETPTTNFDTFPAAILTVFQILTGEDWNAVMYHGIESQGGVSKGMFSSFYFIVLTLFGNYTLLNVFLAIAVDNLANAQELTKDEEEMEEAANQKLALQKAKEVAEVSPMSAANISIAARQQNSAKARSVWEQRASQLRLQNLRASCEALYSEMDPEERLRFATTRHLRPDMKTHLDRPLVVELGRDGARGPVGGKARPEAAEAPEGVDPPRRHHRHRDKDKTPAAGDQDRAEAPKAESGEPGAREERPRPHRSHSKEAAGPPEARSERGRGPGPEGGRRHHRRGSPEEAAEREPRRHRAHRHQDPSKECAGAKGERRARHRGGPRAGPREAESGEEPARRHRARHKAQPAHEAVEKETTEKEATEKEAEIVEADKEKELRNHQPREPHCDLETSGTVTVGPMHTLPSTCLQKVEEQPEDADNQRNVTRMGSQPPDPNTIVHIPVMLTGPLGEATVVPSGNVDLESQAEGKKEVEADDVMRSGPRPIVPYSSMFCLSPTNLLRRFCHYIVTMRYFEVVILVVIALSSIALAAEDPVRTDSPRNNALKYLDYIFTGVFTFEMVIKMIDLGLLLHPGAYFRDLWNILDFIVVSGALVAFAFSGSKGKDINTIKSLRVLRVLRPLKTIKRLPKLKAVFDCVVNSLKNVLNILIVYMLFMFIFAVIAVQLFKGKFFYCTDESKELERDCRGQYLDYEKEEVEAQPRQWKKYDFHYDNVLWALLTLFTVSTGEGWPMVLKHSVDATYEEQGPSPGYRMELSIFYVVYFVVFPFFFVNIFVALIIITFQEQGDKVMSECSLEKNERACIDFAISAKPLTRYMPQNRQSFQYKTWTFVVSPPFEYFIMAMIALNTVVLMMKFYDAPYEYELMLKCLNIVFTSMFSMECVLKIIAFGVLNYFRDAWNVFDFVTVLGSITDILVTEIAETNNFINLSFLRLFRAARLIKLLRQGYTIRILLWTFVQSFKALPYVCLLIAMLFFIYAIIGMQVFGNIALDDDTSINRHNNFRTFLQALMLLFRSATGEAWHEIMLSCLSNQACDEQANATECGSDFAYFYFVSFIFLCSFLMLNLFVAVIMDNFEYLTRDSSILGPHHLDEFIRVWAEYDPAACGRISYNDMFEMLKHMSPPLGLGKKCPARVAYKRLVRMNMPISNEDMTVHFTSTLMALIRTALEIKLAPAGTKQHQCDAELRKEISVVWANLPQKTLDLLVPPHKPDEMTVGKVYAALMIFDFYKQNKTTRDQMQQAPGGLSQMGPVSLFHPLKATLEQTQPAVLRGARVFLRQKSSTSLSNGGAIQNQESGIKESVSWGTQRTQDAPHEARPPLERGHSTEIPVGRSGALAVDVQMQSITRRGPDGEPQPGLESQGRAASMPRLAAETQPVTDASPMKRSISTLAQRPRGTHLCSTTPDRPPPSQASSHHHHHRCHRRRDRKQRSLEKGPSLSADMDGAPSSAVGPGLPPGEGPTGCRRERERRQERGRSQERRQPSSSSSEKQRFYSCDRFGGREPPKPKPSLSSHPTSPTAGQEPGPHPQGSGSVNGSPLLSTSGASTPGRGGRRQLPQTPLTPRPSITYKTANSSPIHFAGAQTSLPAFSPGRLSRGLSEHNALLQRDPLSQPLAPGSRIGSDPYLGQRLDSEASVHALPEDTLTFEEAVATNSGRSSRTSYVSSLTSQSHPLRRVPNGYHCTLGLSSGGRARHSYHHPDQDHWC

SMILES | EC50 (CaV2.2 [1]) | IC50 (CaV2.2 [1]) | LogEC50 (CaV2.2 [2])
CCCC[C@@H]1NC(=O)[C@H](CC(C)C)NC(=O)[C@H](CCCNC(=N)N)NC(=O)[C@H](CO)NC(=O)[C@@H]2CSSC[C@@H]3NC(=O)[C@H](CO)NC(=O)CNC(=O)[C@H]([C@@H](C)O)NC(=O)[C@H](CSSC[C@H](NC(=O)[C@H](C)NC(=O)[C@H](C)NC(=O)CNC(=O)CN)C(=O)N[C@@H](CCCCN)C(=O)NCC(=O)N[C@@H](CCCCN)C(=O)NCC(=O)N[C@@H](C)C(=O)N[C@@H](CCCCN)C(=O)N2)NC(=O)[C@H](CSSC[C@@H](C(=O)N[C@@H](C)C(=O)N[C@@H](C)C(=O)NCC(=O)NCC(=O)N[C@@H](CC(N)=O)C(=O)NCC(=O)N[C@@H](CC(C)C)C(=O)O)NC(=O)[C@H](CCCCN)NC(=O)CNC(=O)[C@H](CO)NC(=O)[C@H](CCCNC(=N)N)NC3=O)NC(=O)[C@H](CC(=O)O)NC(=O)[C@H](Cc2ccc(O)cc2)NC1=O [M-9] | 31.9 nM | 31.9 ± 2.6 nM | -7.5
CCCC[C@@H]1NC(=O)[C@H](CC(C)C)NC(=O)[C@H](CCCNC(=N)N)NC(=O)[C@H](CO)NC(=O)[C@@H]2CSSC[C@@H]3NC(=O)[C@H](CO)NC(=O)CNC(=O)[C@H]([C@@H](C)O)NC(=O)[C@H](CSSC[C@H](NC(=O)[C@H](C)NC(=O)CNC(=O)CN)C(=O)N[C@@H](CCCCN)C(=O)NCC(=O)N[C@@H](CCCCN)C(=O)NCC(=O)N[C@@H](C)C(=O)N[C@@H](CCCCN)C(=O)N2)NC(=O)[C@H](CSSC[C@@H](C(=O)N[C@@H](C)C(=O)NCC(=O)N[C@@H](CC(N)=O)C(=O)NCC(=O)N[C@@H](CC(C)C)C(=O)O)NC(=O)[C@H](CCCCN)NC(=O)CNC(=O)[C@H](CO)NC(=O)[C@H](CCCNC(=N)N)NC3=O)NC(=O)[C@H](CC(=O)O)NC(=O)[C@H](Cc2ccc(O)cc2)NC1=O [M-6] | 67.8 nM | – | -7.2
CCCC[C@@H]1NC(=O)[C@H](CC(C)C)NC(=O)[C@H](CCCNC(=N)N)NC(=O)[C@H](CO)NC(=O)[C@@H]2CSSC[C@@H]3NC(=O)[C@H](CO)NC(=O)CNC(=O)[C@H]([C@@H](C)O)NC(=O)[C@H](CSSC[C@H](NC(=O)[C@H](C)NC(=O)[C@H](C)NC(=O)CNC(=O)CN)C(=O)N[C@@H](CCCCN)C(=O)NCC(=O)N[C@@H](CCCCN)C(=O)NCC(=O)N[C@@H](C)C(=O)N[C@@H](CCCCN)C(=O)N2)NC(=O)[C@H](CSSC[C@@H](C(=O)N[C@@H](C)C(=O)NCC(=O)NCC(=O)N[C@@H](CC(N)=O)C(=O)NCC(=O)N[C@@H](CC(C)C)C(=O)O)NC(=O)[C@H](CCCCN)NC(=O)CNC(=O)[C@H](CO)NC(=O)[C@H](CCCNC(=N)N)NC3=O)NC(=O)[C@H](CC(=O)O)NC(=O)[C@H](Cc2ccc(O)cc2)NC1=O [M-8] | 78.7 nM | – | -7.1
CCCC[C@@H]1NC(=O)[C@H](CC(C)C)NC(=O)[C@H](CCCNC(=N)N)NC(=O)[C@H](CO)NC(=O)[C@@H]2CSSC[C@@H]3NC(=O)[C@H](CO)NC(=O)CNC(=O)[C@H]([C@@H](C)O)NC(=O)[C@H](CSSC[C@H](NC(=O)[C@H](C)NC(=O)[C@H](C)NC(=O)CNC(=O)CN)C(=O)N[C@@H](CCCCN)C(=O)NCC(=O)N[C@@H](CCCCN)C(=O)NCC(=O)N[C@@H](C)C(=O)N[C@@H](CCCCN)C(=O)N2)NC(=O)[C@H](CSSC[C@@H](C(=O)N[C@@H](C)C(=O)NCC(=O)N[C@@H](CC(N)=O)C(=O)NCC(=O)N[C@@H](CC(C)C)C(=O)O)NC(=O)[C@H](CCCCN)NC(=O)CNC(=O)[C@H](CO)NC(=O)[C@H](CCCNC(=N)N)NC3=O)NC(=O)[C@H](CC(=O)O)NC(=O)[C@H](Cc2ccc(O)cc2)NC1=O [M-7] | 55.5 nM | – | -7.3
